Usually IC50 stands for the concentration that gives 50% inhibition.

This note sets out measurements from patent US9650336B2, “Mono-fluoro beta-secretase inhibitors” (ASTRAZENECA AB, priority 2011, dated 2017).

Test [1] deals with sAPPβ release in SH-SY5Y cells. Kind of test: sAPPβ release assay. Type of test: cell-based. As to conditions: Homo sapiens, 17 h incubation. The procedure: SH-SY5Y cells were cultured in DMEM/F-12 with Glutamax, 10% FCS and 1% non-essential amino acids and cryopreserved and stored at −140° C. at a concentration of 7.5-9.5×10^6 cells per vial. Thaw cells and seed at a conc. of around 10000 cells/well in DMEM/F-12 with Glutamax, 10% FCS and 1% non-essential amino acids to a 384-well tissue culture treated plate, […] cell susp/well. The cell plates were then incubated for 7-24 h at 37° C., 5% CO2. The cell medium was removed, followed by addition of 30 μL compound diluted in DMEM/F-12 with Glutamax, 10% FCS, 1% non-essential amino acids and 1% PeSt to a final conc. of 1% DMSO. The compounds were incubated with the cells for 17 h (overnight) at 37° C., 5% CO2. Meso Scale Discovery (MSD) plates were used for the detection of sAPPβ release. MSD sAPPβ plates were blocked in 1% BSA in Tris wash buffer (40 μL/well) for 1 h on shake at r.t. and washed 1 time in Tris wash buffer (40 μL/well). 20 μL of medium was transferred to the pre-blocked and washed MSD sAPPβ microplates, and the cell plates were further used in an ATP assay to measure cytotoxicity. The MSD plates were incubated with shaking at r.t. for 2 h and the media discarded. 10 μL detection antibody was added (1 nM) per well followed by incubation with shaking at r.t. for 2 h and then discarded. 40 μL Read Buffer was added per well and the plates were read in a SECTOR Imager.

Test [2] has as its target T1, human β-secretase (sBACE-Fc, soluble part AA 1-AA 460) (Homo sapiens (Human), UniProt P56817). Kind of test: Diluted TR-FRET assay. Type of test: biochemical. The conditions noted are these: 50 times less enzyme, 6.5 h reaction time at r.t. in the dark; read-out: IC50 from the diluted FRET assay. The procedure:
(§1) The β-secretase enzyme used in the TR-FRET is prepared as follows:
(§2) The cDNA for the soluble part of the human 13-Secretase (AA 1-AA 460) was cloned using the ASP2-Fc10-1-IRES-GFP-neoK mammalian expression vector. The gene was fused to the Fc domain of IgG1 (affinity tag) and stably cloned into HEK 293 cells.
[…] The robotic systems Biomek FX and Velocity 11 were used for all liquid handling and the enzyme and substrate solutions were kept on ice until they were placed in the robotic system. Enzyme (9 μL) was added to the plate then 1 μL of compound in dimethylsulphoxide was added, mixed and pre-incubated for 10 minutes. […] The reaction was stopped with the addition of Stop solution (7 μL, NaAcetate, pH 9). The fluorescence of the product was measured on a Victor II plate reader with an excitation wavelength of 340 nm and an emission wavelength of 615 nm. The assay was performed in a Costar 384 well round bottom, low volume, non-binding surface plate (Corning #3676). […] The dimethylsulphoxide control, instead of test compound, defined the 100% activity level and 0% activity was defined by wells lacking enzyme (replaced with reaction buffer).
On the technique in general: In TR-FRET formats the signal depends on donor and acceptor labels being close together.

Test [3] has as its target T1, human β-secretase (sBACE-Fc, soluble part AA 1-AA 460). Kind of test: TR-FRET assay. It is filed as biochemical. As to conditions: TruPoint BACE1 substrate 100 nM, pH 4.5, 15 min at r.t. Here is the method: as §1, §2
The enzyme (truncated form) was diluted to 6 μg/mL (stock 1.3 mg/mL) and the TruPoint BACE1 Substrate to 200 nM (stock 120 μM) in reaction buffer (NaAcetate, chaps, triton x-100, EDTA pH4.5). The robotic systems Biomek FX and Velocity 11 were used for all liquid handling and the enzyme and substrate solutions were kept on ice until they were placed in the robotic system. Enzyme (9 μL) was added to the plate then 1 μL of compound in dimethylsulphoxide was added, mixed and pre-incubated for 10 minutes. Substrate (10 μL) was then added, mixed and the reaction proceeded for 15 minutes at r.t. The reaction was stopped with the addition of Stop solution (7 μL, NaAcetate, pH 9). The fluorescence of the product was measured on a Victor II plate reader with an excitation wavelength of 340 nm and an emission wavelength of 615 nm. The assay was performed in a Costar 384 well round bottom, low volume, non-binding surface plate (Corning #3676). […] The dimethylsulphoxide control, instead of test compound, defined the 100% activity level and 0% activity was defined by wells lacking enzyme (replaced with reaction buffer).

T1 sequence (P56817 22-460): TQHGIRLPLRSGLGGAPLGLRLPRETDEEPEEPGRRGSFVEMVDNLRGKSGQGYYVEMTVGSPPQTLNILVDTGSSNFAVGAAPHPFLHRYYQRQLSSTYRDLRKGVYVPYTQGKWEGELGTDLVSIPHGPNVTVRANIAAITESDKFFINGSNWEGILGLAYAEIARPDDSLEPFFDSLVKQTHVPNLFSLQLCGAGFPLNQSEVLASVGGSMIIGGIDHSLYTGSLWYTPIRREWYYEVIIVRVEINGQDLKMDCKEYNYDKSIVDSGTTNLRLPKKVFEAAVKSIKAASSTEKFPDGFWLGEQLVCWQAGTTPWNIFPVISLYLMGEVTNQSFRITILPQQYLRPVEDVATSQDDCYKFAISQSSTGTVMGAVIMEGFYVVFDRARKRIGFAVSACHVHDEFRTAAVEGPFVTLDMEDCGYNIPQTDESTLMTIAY

For the compound `CO[C@H]1CC[C@]2(CC1)Cc1ccc(-c3cncnc3)cc1C21C=C(F)C(N)=N1` (stereo partly drawn) [Example 1, (1r,4r)-4″-fluoro-4-methoxy-6′-(pyrimidin-5-yl)-3′H-dispiro[cyclohexane-1,2′-indene-1,2″-pyrrol]-5″amine], the figures for the IC50 in test [1] and in test [2] were 1.1 nM and 22 nM, respectively.

With `CO[C@H]1CC[C@@]2(CC1)Cc1ccc(-c3cncnc3)cc1C21C=C(F)C(N)=N1` (stereo partly drawn) [Example 2, (1s,4s)-4″-Fluoro-4-methoxy-6′-(pyrimidin-5-yl)-3′H-dispiro[cyclohexane-1,2′-indene-1,2″-pyrrol]-5″amine], the half-maximal inhibitory concentration (IC50) in test [1] came out at 56 nM; in test [3], 1970 nM.

For `CC#Cc1cncc(-c2ccc3c(c2)C2(C=C(F)C(N)=N2)[C@]2(CC[C@H](OC)CC2)C3)c1` (stereo partly drawn) [Example 3, (1r,4r)-4″-Fluoro-4-methoxy-6′-[5-(prop-1-yn-1-yl)pyridin-3-yl]-3′H-dispiro[cyclohexane-1,2′-indene-1′,2″-pyrrol]-5″amine], the IC50 in test [1] turned out to be 0.031 nM; in test [3] it was 18 nM.

Take `CC#Cc1cncc(-c2ccc3c(c2)C2(C=C(F)C(N)=N2)[C@]2(CC[C@@H](OC)CC2)C3)c1` (stereo partly drawn) [Example 4, (1s,4s)-4″-Fluoro-4-methoxy-6′-[5-(prop-1-yn-1-yl)pyridin-3-yl]-3′H-dispiro[cyclohexane-1,2′-indene-1′,2″-pyrrol]-5″amine]: the IC50 is 1.1 nM in test [1] and 258 nM in test [3].

`CO[C@H]1CC[C@]2(CC1)Oc1ccc(-c3cc(F)cc(C#N)c3)cc1C21C=C(F)C(N)=N1` (stereo partly drawn) [Example 5, 3-[(1s,4s)-5″-Amino-4″-fluoro-4-methoxydispiro[cyclohexane-1,2′-[1]benzofuran-3′,2″-pyrrol]-5′-yl]-5-fluorobenzonitrile]: the IC50 amounted to 3 nM in test [1] and 71 nM in test [3].

As to `CC1(C)COc2ccc(-c3cncnc3)cc2C12C=C(F)C(N)=N2` (stereo not drawn) [Example 6, 4′-Fluoro-3,3-dimethyl-6-(pyrimidin-5-yl)spiro[chroman-4,2′-pyrrol]-5′-amine], the IC50 in test [1] came out at 19 nM; in test [3] it was 770 nM.

Regarding `CC1(C)COc2ccc(-c3cncc(F)c3)cc2C12C=C(F)C(N)=N2` (stereo not drawn) [Example 7, 4′-Fluoro-6-(5-fluoropyridin-3-yl)-3,3-dimethylspiro[chroman-4,2′-pyrrol]-5′-amine], the IC50 in test [1] came out at 30 nM; in test [3], 770 nM.

As for `CC1(C)COc2ccc(-c3cc(F)cc(F)c3)cc2C12C=C(F)C(N)=N2` (stereo not drawn) [Example 8, 6-(3,5-Difluorophenyl)-4′-fluoro-3,3-dimethylspiro[chroman-4,2′-pyrrol]-5′-amine], the IC50 amounted to 256 nM in test [1] and 640 nM in test [3].

Take `CC1(C)Cc2ccc(-c3cncnc3)cc2C12C=C(F)C(N)=N2` (stereo not drawn) [Example 9, 4′-fluoro-2,2-dimethyl-6-(pyrimidin-5-yl)-2,3-dihydrospiro[indene-1,2′-pyrrol]-5′-amine]: the IC50 in test [1] was found to be 168 nM; in test [3] it was 3790 nM.
